In brackets after ≈: the same amount, converted by molar mass.
Assays:
[1] = Stability in human plasma assessed as half life measured at 120 mins by LC/MS-MS analysis; assay type: ADME, cell-free
Candida albicans [2] = assay: Antifungal activity against Candida albicans ATCC SC5314 assessed as fungal growth inhibition by NCCLS protocol based method; assay type: functional
Candida albicans [3] = assay: Antifungal activity against Candida albicans CPCC400616 assessed as fungal growth inhibition by NCCLS protocol based method; assay type: functional
Candida tropicalis = assay: Antifungal activity against Candida tropicalis CGMCC 2.3739 assessed as fungal growth inhibition by NCCLS protocol based method; assay type: functional
Cryptococcus neoformans = assay: Antifungal activity against Cryptococcus neoformans CGMCC 2.3161 assessed as fungal growth inhibition by NCCLS protocol based method; assay type: functional
Candida parapsilosis = assay: Antifungal activity against Candida parapsilosis GIM2.190 assessed as fungal growth inhibition by NCCLS protocol based method; assay type: functional; details: Lodderomyces parapsilosis
Nakaseomyces glabratus = assay: Antifungal activity against Candida glabrata clinical isolate assessed as fungal growth inhibition by NCCLS protocol based method; assay type: functional
Pichia kudriavzevii = assay: Antifungal activity against Candida krusei GIM2.1 assessed as fungal growth inhibition by NCCLS protocol based method; assay type: functional
Aspergillus fumigatus = assay: Antifungal activity against Aspergillus fumigatus CGMCC3.7795 assessed as fungal growth inhibition by NCCLS protocol based method; assay type: functional
Candida albicans [4] = assay: Antifungal activity against FLC-resistant Candida albicans CaR assessed as fungal growth inhibition by NCCLS protocol based method; assay type: functional
Candida albicans [5] = assay: Antifungal activity against FLC-resistant Candida albicans 901 assessed as fungal growth inhibition by NCCLS protocol based method; assay type: functional
Candida albicans [6] = assay: Antifungal activity against FLC-resistant Candida albicans 904 assessed as fungal growth inhibition by NCCLS protocol based method; assay type: functional
Candida albicans [7] = assay: Antifungal activity against FLC-resistant Candida albicans 632 assessed as fungal growth inhibition by NCCLS protocol based method; assay type: functional
Candida albicans [8] = assay: Antifungal activity against FLC-resistant Candida albicans 100 assessed as fungal growth inhibition by NCCLS protocol based method; assay type: functional
Candida albicans [9] = assay: Antifungal activity against FLC-resistant Candida albicans 103 assessed as fungal growth inhibition by NCCLS protocol based method; assay type: functional
Candida albicans [10] = assay: Antifungal activity against FLC-resistant Candida albicans 311 assessed as fungal growth inhibition by NCCLS protocol based method; assay type: functional
Candida albicans [11] = assay: Antibiofilm activity against FLC-resistant Candida albicans CPCC400616 assessed as assessed as inhibition of biofilm formation measured at 3 hrs by XTT reduction assay; assay type: functional
Candida albicans [12] = assay: Antibiofilm activity against FLC-resistant Candida albicans CPCC400616 assessed as assessed as inhibition of biofilm formation measured at 6 hrs by XTT reduction assay; assay type: functional
Candida albicans [13] = assay: Antibiofilm activity against FLC-resistant Candida albicans CPCC400616 assessed as assessed as inhibition of biofilm formation measured at 18 hrs by XTT reduction assay; assay type: functional
Candida albicans [14] = assay: Antibiofilm activity against FLC-resistant Candida albicans CPCC400616 assessed as assessed as inhibition of biofilm formation measured at 24 hrs by XTT reduction assay; assay type: functional
[15] = Stability in human plasma assessed as compound remaining measured at 120 mins by LC/MS-MS analysis; assay type: ADME, cell-free; details: read-out: Stability
Candida albicans [16] = assay: Fungicidal activity against Candida albicans CPCC400616 assessed as minimum inhibitory concentration incubated for 48 hrs; assay type: functional
Candida albicans [17] = assay: Fungicidal activity against Candida albicans CPCC400616 assessed as minimum fungicidal concentration incubated for 48 hrs; assay type: functional
Candida albicans [18] = assay: […] for fungicidal activity against Candida albicans CPCC400616; assay type: functional
Candida albicans [19] = assay: Fungicidal activity against Candida albicans CPCC400616 assessed as reduction in colony forming units at 8 times MIC incubated for 24 hrs by time kill assay; assay type: functional
Candida albicans [20] = assay: Fungicidal activity against Candida albicans CPCC400616 assessed as reduction in colony forming units at 2 to 8 times MIC incubated for 24 hrs by time kill assay; assay type: functional, organism-based; details: DDE = dose-dependent effect
[21] = Cytotoxicity against human HEK293T cells assessed as inhibition of cell growth incubated for 4 hrs by MTT assay; assay type: toxicity, cell-based, HEK-293T
A549 = assay: Cytotoxicity against human A549 cells assessed as inhibition of cell growth incubated for 4 hrs by MTT assay; assay type: functional, cell-based; details: A549, 4 h
MCF7 = assay: Cytotoxicity against human MCF7 cells assessed as inhibition of cell growth incubated for 4 hrs by MTT assay; assay type: functional, cell-based; details: MCF7, 4 h
HepG2 = assay: Cytotoxicity against human HepG2 cells assessed as inhibition of cell growth incubated for 4 hrs by MTT assay; assay type: functional, cell-based; details: HepG2, 4 h
[22] = Half life in Sprague-Dawley rat at 10 mg/kg, po measured after 24 hrs by LC-MS/MS analysis; assay type: ADME, organism-based; details: in vivo
[23] = Metabolic stability in human liver microsomes assessed as half life preincubated for 10 mins followed by NADPH addition and measured after 5 to 60 mins by LC-MS/MS analysis; assay type: ADME, Microsome; details: time 15-70 min
[24] = Metabolic stability in human microsomes assessed as intrinsic clearance preincubated for 10 mins followed by NADPH addition and measured after 5 to 60 mins by LC-MS/MS analysis; assay type: ADME, Microsome; details: time 15-70 min
[25] = Metabolic stability in human liver microsomes assessed as compound remaining preincubated for 10 mins followed by NADPH addition and measured at 60 mins by LC-MS/MS analysis; assay type: ADME, Microsome; details: time 70 min, read-out: Stability
[26] = Stability in human plasma assessed as compound remaining measured at 60 mins by LC/MS-MS analysis; assay type: ADME, cell-free; details: read-out: Stability
[27] = AUClast in Sprague-Dawley rat at 10 mg/kg, po measured after 24 hrs by LC-MS/MS analysis; assay type: ADME, organism-based; set-up: dose 10 mg/kg, time 24 hrs, route po; details: in vivo
[28] = AUClast in Sprague-Dawley rat at 3 mg/kg, iv measured after 24 hrs by LC-MS/MS analysis; assay type: ADME, organism-based; set-up: time 24 hrs, dose 3 mg/kg, route iv; details: in vivo
[29] = Half life in Sprague-Dawley rat at 3 mg/kg, iv measured after 24 hrs by LC-MS/MS analysis; assay type: ADME, organism-based; details: in vivo
[30] = Oral bioavailability in Sprague-Dawley rat at 10 mg/kg measured measured after 24 hrs by LC-MS/MS analysis; assay type: ADME, organism-based; details: in vivo

Fc1ccc(C2(Cn3ccnc3)COC(c3ccc(-c4ccccc4F)s3)=N2)cc1 (centres undefined) gave a half-life [1] greater than 4.8 h, an MIC (Candida albicans [2]) of 0.03 µg/mL (≈ 0.0712 µM) and an MIC (Candida albicans [3]) of 0.03 µg/mL (≈ 0.0712 µM). It also gave an MIC (Candida tropicalis) of 0.03 µg/mL (≈ 0.0712 µM), an MIC (Cryptococcus neoformans) of 0.125 µg/mL (≈ 0.297 µM) and an MIC (Candida parapsilosis) of 0.25 µg/mL (≈ 0.593 µM). The MIC (Nakaseomyces glabratus) was 0.06 µg/mL (≈ 0.142 µM), the MIC (Pichia kudriavzevii) was 0.25 µg/mL (≈ 0.593 µM) and the MIC (Aspergillus fumigatus) was 0.25 µg/mL (≈ 0.593 µM). For the same compound, the MIC (Candida albicans [4]) was 0.25 µg/mL (≈ 0.593 µM), the MIC (Candida albicans [5]) was 0.125 µg/mL (≈ 0.297 µM) and the MIC (Candida albicans [6]) was 1 µg/mL (≈ 2.37 µM). It also gave an MIC (Candida albicans [7]) of 0.5 µg/mL (≈ 1.19 µM), an MIC (Candida albicans [8]) of 0.5 µg/mL (≈ 1.19 µM) and an MIC (Candida albicans [9]) of 0.25 µg/mL (≈ 0.593 µM). It also gave an MIC (Candida albicans [10]) of 0.125 µg/mL (≈ 0.297 µM), an MIC50 (Candida albicans [11]) of 0.125 µg/mL (≈ 0.297 µM) and an MIC50 (Candida albicans [12]) of 1 µg/mL (≈ 2.37 µM). It also gave an MIC50 (Candida albicans [13]) of 2 µg/mL (≈ 4.75 µM), an MIC50 (Candida albicans [14]) of 8 µg/mL (≈ 19 µM) and a remaining at 2 h [15] of 101%. It also gave an MIC (Candida albicans [16]) of 0.03 µg/mL (≈ 0.0712 µM), an MFC (Candida albicans [17]) of 0.125 µg/mL (≈ 0.297 µM) and a Ratio (Candida albicans [18]) of 4. For the same compound, the Activity (Candida albicans [19]) was 2 log10CFU/ml, the Activity (Candida albicans [20]) was “Dde” and the IC50 at 4 h [21] was 14.2 µM. The IC50 (A549) was greater than 50 µM, the IC50 (MCF7) was greater than 50 µM and the IC50 (HepG2) was 17 µM. The half-life [22] was 4.44 h, the half-life [23] was 1.18 h and the CLint [24] was 19.7 µL/min/mg. The remaining at 1 h [25] was 49.7%, the remaining at 1 h [26] was 98.7% and the AUC(0-t) at 24 h [27] was 466 ng·h/mL. For the same compound, the AUC(0-t) at 24 h [28] was 925 ng·h/mL, the half-life [29] was 1.02 h and the bioavailability [30] was 15.1%.
